How the values were obtained:
Assay in all cases: relative viability (nuclei count vs DMSO), 5 days (fraction); higher = more cells survive
NCI-H1755 = test system: NCI-H1755
Outline: (§1)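 Relative viability was taken as the ratio of nuclei in treated wells to nuclei in vehicle wells. Lung cancer cell lines in 1536-well plates received compounds by pin tool one day after seeding, either one drug alone or a fixed anchor-drug dose plus five library-drug doses (not always all listed) in √10 steps. Nuclei were counted on 4× images after 5 days of treatment, and values are medians of duplicate plates.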

LC-2-ad = test system: LC-2-ad
Outline: as §1

NCI-H2023 = test system: NCI-H2023
Outline: as §1

NCI-H1395 = test system: NCI-H1395
Outline: as §1

NCI-H650 = test system: NCI-H650
Outline: as §1

NCI-H3122 = test system: NCI-H3122
Outline: as §1

NCI-H727 = test system: NCI-H727
Outline: as §1

BEN = test system: BEN
Outline: as §1

NCI-H1563 = test system: NCI-H1563
Outline: as §1

NCI-H2170 = test system: NCI-H2170
Outline: as §1

HCC-15 = test system: HCC-15
Outline: as §1

SW 900 = test system: SW 900
Outline: as §1

SW 1573 = test system: SW 1573
Outline: as §1

NCI-H1915 = test system: NCI-H1915
Outline: as §1

EMC-BAC-2 = test system: EMC-BAC-2
Outline: as §1

LU99A = test system: LU99A
Outline: as §1

NCI-H1734 = test system: NCI-H1734
Outline: as §1

NCI-H358 = test system: NCI-H358
Outline: as §1

HCC-44 = test system: HCC-44
Outline: as §1

NCI-H2126 = test system: NCI-H2126
Outline: as §1

NCI-H1437 = test system: NCI-H1437
Outline: as §1

HOP-62 = test system: HOP-62
Outline: as §1

CCNC(=O)c1noc(-c2cc(C(C)C)c(O)cc2O)c1-c1ccc(CN2CCOCC2)cc1 [Luminespib] + COc1cccc2cc(-c3nc([C@H]4CC[C@H](C(=O)O)CC4)n4ncnc(N)c34)[nH]c12 [OSI-027] (partner 0.5 µM)
relative viability (NCI-H1755; first compound 0.002 µM): 0.768
relative viability (NCI-H1755; first compound 0.006325 µM): 0.707
relative viability (NCI-H1755; first compound 0.02 µM): 0.626
relative viability (NCI-H1755; first compound 0.06325 µM): 0.206
relative viability (NCI-H1755; first compound 0.2 µM): 0.113
relative viability (LC-2-ad; first compound 0.002 µM): 0.806
relative viability (LC-2-ad; first compound 0.006325 µM): 0.822
relative viability (LC-2-ad; first compound 0.02 µM): 0.569
relative viability (LC-2-ad; first compound 0.06325 µM): 0.259
relative viability (LC-2-ad; first compound 0.2 µM): 0.28
relative viability (NCI-H2023; first compound 0.002 µM): 0.44
relative viability (NCI-H2023; first compound 0.006325 µM): 0.374
relative viability (NCI-H2023; first compound 0.02 µM): 0.131
relative viability (NCI-H2023; first compound 0.06325 µM): 0.0545
relative viability (NCI-H2023; first compound 0.2 µM): 0.0624
relative viability (NCI-H1395; first compound 0.002 µM): 0.704
relative viability (NCI-H1395; first compound 0.006325 µM): 0.632
relative viability (NCI-H1395; first compound 0.02 µM): 0.512
relative viability (NCI-H1395; first compound 0.06325 µM): 0.337
relative viability (NCI-H1395; first compound 0.2 µM): 0.321
relative viability (NCI-H650; first compound 0.002 µM): 0.477
relative viability (NCI-H650; first compound 0.006325 µM): 0.545
relative viability (NCI-H650; first compound 0.02 µM): 0.378
relative viability (NCI-H650; first compound 0.06325 µM): 0.368
relative viability (NCI-H650; first compound 0.2 µM): 0.109
relative viability (NCI-H3122; first compound 0.002 µM): 1.01
relative viability (NCI-H3122; first compound 0.006325 µM): 0.787
relative viability (NCI-H3122; first compound 0.02 µM): 0.142
relative viability (NCI-H3122; first compound 0.06325 µM): 0.114
relative viability (NCI-H3122; first compound 0.2 µM): 0.105
relative viability (NCI-H727; first compound 0.002 µM): 0.72
relative viability (NCI-H727; first compound 0.006325 µM): 0.549
relative viability (NCI-H727; first compound 0.02 µM): 0.463
relative viability (NCI-H727; first compound 0.06325 µM): 0.33
relative viability (NCI-H727; first compound 0.2 µM): 0.23
relative viability (BEN; first compound 0.002 µM): 0.288
relative viability (BEN; first compound 0.006325 µM): 0.292
relative viability (BEN; first compound 0.02 µM): 0.316
relative viability (BEN; first compound 0.06325 µM): 0.212
relative viability (BEN; first compound 0.2 µM): 0.183
relative viability (NCI-H1563; first compound 0.002 µM): 0.756
relative viability (NCI-H1563; first compound 0.006325 µM): 0.697
relative viability (NCI-H1563; first compound 0.02 µM): 0.585
relative viability (NCI-H1563; first compound 0.06325 µM): 0.473
relative viability (NCI-H1563; first compound 0.2 µM): 0.468
relative viability (NCI-H2170; first compound 0.002 µM): 0.739
relative viability (NCI-H2170; first compound 0.006325 µM): 0.698
relative viability (NCI-H2170; first compound 0.02 µM): 0.488
relative viability (NCI-H2170; first compound 0.06325 µM): 0.23
relative viability (NCI-H2170; first compound 0.2 µM): 0.173
relative viability (HCC-15; first compound 0.002 µM): 0.686
relative viability (HCC-15; first compound 0.006325 µM): 0.644
relative viability (HCC-15; first compound 0.02 µM): 0.556
relative viability (HCC-15; first compound 0.06325 µM): 0.0983
relative viability (HCC-15; first compound 0.2 µM): 0.0973
relative viability (SW 900; first compound 0.002 µM): 0.502
relative viability (SW 900; first compound 0.006325 µM): 0.471
relative viability (SW 900; first compound 0.02 µM): 0.131
relative viability (SW 900; first compound 0.06325 µM): 0.0999
relative viability (SW 900; first compound 0.2 µM): 0.0789
relative viability (SW 1573; first compound 0.002 µM): 0.633
relative viability (SW 1573; first compound 0.006325 µM): 0.549
relative viability (SW 1573; first compound 0.02 µM): 0.199
relative viability (SW 1573; first compound 0.06325 µM): 0.0962
relative viability (SW 1573; first compound 0.2 µM): 0.09
relative viability (NCI-H1915; first compound 0.002 µM): 0.596
relative viability (NCI-H1915; first compound 0.006325 µM): 0.502
relative viability (NCI-H1915; first compound 0.02 µM): 0.517
relative viability (NCI-H1915; first compound 0.06325 µM): 0.243
relative viability (NCI-H1915; first compound 0.2 µM): 0.0689
relative viability (EMC-BAC-2; first compound 0.002 µM): 0.426
relative viability (EMC-BAC-2; first compound 0.006325 µM): 0.354
relative viability (EMC-BAC-2; first compound 0.02 µM): 0.415
relative viability (EMC-BAC-2; first compound 0.06325 µM): 0.348
relative viability (EMC-BAC-2; first compound 0.2 µM): 0.184
relative viability (LU99A; first compound 0.002 µM): 0.274
relative viability (LU99A; first compound 0.006325 µM): 0.265
relative viability (LU99A; first compound 0.02 µM): 0.265
relative viability (LU99A; first compound 0.06325 µM): 0.154
relative viability (LU99A; first compound 0.2 µM): 0.162
relative viability (NCI-H1734; first compound 0.002 µM): 0.538
relative viability (NCI-H1734; first compound 0.006325 µM): 0.555
relative viability (NCI-H1734; first compound 0.02 µM): 0.352
relative viability (NCI-H1734; first compound 0.06325 µM): 0.168
relative viability (NCI-H1734; first compound 0.2 µM): 0.156
relative viability (NCI-H358; first compound 0.002 µM): 0.9
relative viability (NCI-H358; first compound 0.006325 µM): 0.747
relative viability (NCI-H358; first compound 0.02 µM): 0.362
relative viability (NCI-H358; first compound 0.06325 µM): 0.0472
relative viability (NCI-H358; first compound 0.2 µM): 0.0538
relative viability (HCC-44; first compound 0.002 µM): 0.484
relative viability (HCC-44; first compound 0.006325 µM): 0.554
relative viability (HCC-44; first compound 0.02 µM): 0.483
relative viability (HCC-44; first compound 0.06325 µM): 0.135
relative viability (HCC-44; first compound 0.2 µM): 0.139
relative viability (NCI-H2126; first compound 0.002 µM): 0.72
relative viability (NCI-H2126; first compound 0.006325 µM): 0.651
relative viability (NCI-H2126; first compound 0.02 µM): 0.533
relative viability (NCI-H2126; first compound 0.06325 µM): 0.226
relative viability (NCI-H2126; first compound 0.2 µM): 0.223
relative viability (NCI-H1437; first compound 0.002 µM): 0.838
relative viability (NCI-H1437; first compound 0.006325 µM): 0.845
relative viability (NCI-H1437; first compound 0.02 µM): 0.466
relative viability (NCI-H1437; first compound 0.06325 µM): 0.57
relative viability (NCI-H1437; first compound 0.2 µM): 0.187
relative viability (HOP-62; first compound 0.002 µM): 0.83
relative viability (HOP-62; first compound 0.006325 µM): 0.758
relative viability (HOP-62; first compound 0.02 µM): 0.648
relative viability (HOP-62; first compound 0.06325 µM): 0.428
relative viability (HOP-62; first compound 0.2 µM): 0.111
